Reference: patent US20240343735A1, “Hydrochloride Salt of Inupadenant, Pharmaceutical Compositions and Methods of Use Thereof” (iTeos Belgium SA, priority 2021, published 2024)

Key:
Format in all cases: physicochemical
[1] = Dynamic vapor sorption (DVS)
Experimental: 10-20 mg of sample was placed into a mesh vapor sorption balance pan and loaded into a DVS Intrinsic or Advantage dynamic vapor sorption balance by Surface Measurement Systems. The sample was subjected to a ramping profile from 40-90% relative humidity (RH) at 10% increments, maintaining the sample at each step until a stable weight had been achieved (dm/dt 0.004%, minimum step length 30 minutes, maximum step length 500 minutes) at 25° C. After completion of the sorption cycle, the sample was dried using the same procedure to 0% RH and then a second sorption cycle back to 40% RH. Two cycles were performed. The weight change during the sorption/desorption cycles were plotted, allowing for the hygroscopic nature of the sample to be determined. XRPD analysis (XRPD Method A) was then carried out on any solid retained.
DVS isotherms were collected using a Surface Measurement Systems Ltd. DVS-1 No Video, equipment #2126. The sample was loaded into balance pan, typically 10-30 mg, and equilibrated at 0% RH. After the material has dried the RH was increased with 10% per step for 1 hour per increment, ending at 95% RH. After completion of the sorption cycle, the sample was dried using the same method. The software used for data collection is DVSWin v3.01 No Video. Data analysis was performed using DVS Standard Analysis Suite v6.3.0 (Standard). […]

[2] = 7-day stability assessment of amorphous inupadenant hydrochloride
Experimental: A 7-day stability assessment of amorphous inupadenant hydrochloride was carried out as follows: (1) 20 mg amorphous inupadenant was added to 3×2 mL glass vials; (2) the samples were then stored under the following conditions—(i) 40° C./75% RH—open vial, (ii) 80° C.—closed vial, and (iii) ambient light—open vial; (3) Solids were stored for 1 week under the above conditions with XRPD analysis (Example 1, XRPD Method A) and HPLC purity analysis (Example 1, HPLC Method A) being carried out post-storage.

[3] = 7-day stability assessment of Form 2 inupadenant hydrochloride
[4] = Solubility assessment in solvents; settings: 1,4-dioxane, water, tert-butyl alcohol, THF, ethyl acetate, acetone, methanol, DCM; even at 20 mg/mL with gentle heating
Experimental: 0.5-1 mL of solvent was added to each vial and the samples were manually shaken at ambient temperature. […] The solvents assessed in this solubility study were 1,4-dioxane, water, tert-butyl alcohol, THF, ethyl acetate, acetone, methanol, and DCM.

[5] = Salt disproportionation study in unbuffered water; settings: ambient temperature, 24 hours
[6] = Dissolution rate assessment in pH 1.2, 0.2 M HCl/KCl buffer; settings: for Conc. mg/mL in pH 1.2 HCl/KCl: ca. 37° C.
Experimental: 1000 μL of each sample was drawn from the slurry layer by automated pipette at 15, 30, 60, 120, 240 and 1440 minute timepoints. • These aliquots were spun down through a centrifuge filter, diluted 300 μl:300 μl with the method specified diluent and placed in total recovery vials. The solids were retained for XRPD analysis. • The solubility of the material in the buffer was determined by HPLC analysis (duplicate injections) (Example 1, HPLC Method C) against verified reference solutions of the source material at known concentrations.

[7] = 7 days, 40° C. + 75% RH, open vial
[8] = 7 days, ambient light, open vial

SMILES: C[S@+]([O-])CCOc1cc(N2CCN(CCn3c(=O)sc4c3nc(N)n3nc(-c5ccco5)nc43)CC2)c(F)cc1F.Cl [Form 1 inupadenant hydrochloride]
- DVS total mass uptake ([1]; at 95% RH, DVS Method B): 5 wt. %

SMILES: C[S@+]([O-])CCOc1cc(N2CCN(CCn3c(=O)sc4c3nc(N)n3nc(-c5ccco5)nc43)CC2)c(F)cc1F.Cl.O [Form 2 inupadenant hydrochloride]
- change of solid purity (HPLC) after 7-day stability assessment ([2]; all stability conditions): no changes to solid purity
- DVS total mass increase ([1]; at 90% RH, 25° C., DVS Method A): 3.8 wt. %
- HPLC (Purity, % area) [3, 7]: 99.64 % area
- XRPD Analysis [3, 7]: Form 2 inupadenant
- HPLC (Purity, % area) ([3]; 7 days, 80° C., closed vial): 99.66 % area
- XRPD Analysis ([3]; 7 days, 80° C., closed vial): Form 2 inupadenant
- HPLC (Purity, % area) [3, 8]: 99.66 % area
- XRPD Analysis [3, 8]: Form 2 inupadenant
- change of solid form (XRPD) after 7-day stability assessment ([3]; all stability conditions): no changes to the solid form
- change of solid purity (HPLC) after 7-day stability assessment ([3]; all stability conditions): no changes to solid purity
- HPLC (Purity, % area) ([3]; input material): 99.61 % area
- XRPD Analysis ([3]; input material): Form 2 inupadenant
- solubility in solvent systems [4]: insoluble
- solid form (XRPD) after slurrying in water [5]: no changes in the solid form
- solubility in pH 1.2 0.2 M HCl/KCl buffer ([6]; 37° C., overnight): low
- Conc. mg/mL in pH 1.2 HCl/KCl ([6]; 15 min): 0.0010 mg/mL
- Conc. mg/mL in pH 1.2 HCl/KCl ([6]; 30 min): 0.0013 mg/mL
- Conc. mg/mL in pH 1.2 HCl/KCl ([6]; 60 min): 0.0014 mg/mL
- Conc. mg/mL in pH 1.2 HCl/KCl ([6]; 120 min): 0.0023 mg/mL
- Conc. mg/mL in pH 1.2 HCl/KCl ([6]; 240 min): 0.0029 mg/mL
- Conc. mg/mL in pH 1.2 HCl/KCl ([6]; 1440 min): 0.0035 mg/mL
- XRPD of solids recovered from each timepoint ([6]; pH 1.2 HCl/KCl buffer): consistent with Form 2 inupadenant hydrochloride

SMILES: C[S@+]([O-])CCOc1cc(N2CCN(CCn3c(=O)sc4c3nc(N)n3nc(-c5ccco5)nc43)CC2)c(F)cc1F.Cl [amorphous inupadenant hydrochloride]
- HPLC (Purity, % area) [2, 7]: 99.64 % area
- XRPD Analysis [2, 7]: Form 2 inupadenant
- HPLC (Purity, % area) ([2]; 7 days, 80° C., closed vial): 99.66 % area
- XRPD Analysis ([2]; 7 days, 80° C., closed vial): Form 2 inupadenant
- HPLC (Purity, % area) [2, 8]: 99.66 % area
- XRPD Analysis [2, 8]: Form 2 inupadenant
- change of solid form (XRPD) after 7-day stability assessment ([2]; all stability conditions): crystallized into Form 2 inupadenant hydrochloride
- HPLC (Purity, % area) ([2]; input material): 99.61 % area
- XRPD Analysis ([2]; input material): Predominantly amorphous
